Assay results: PMC2637266, “Quantification of gamma-secretase modulation differentiates inhibitor compound selectivity between two substrates Notch and amyloid precursor protein” (Molecular Brain, 2008)
“Also recorded” adds a separate entry of the source. Where two headings read alike, the source gives them in different places.

Assays:
zebrafish embryos = assay: Zebrafish embryo treatment, tail curvature phenotype; format: in vivo; conditions: 50 μM; for embryo morphology, tail curvature: 24 hpf to 48 hpf, 28°C; for embryo morphology, tail curvature at 4 dpf: kept for four days
Procedure: Measurements of in vitro γ-secretase activity and cell-based Aβ/NICD generation have shown different inhibition potencies. To examine the inhibitory effect in vivo, zebrafish embryos were treated with DAPT or cpd E. Because different γ-secretase inhibitors may impact various metabolic pathways in zebrafish embryos, especially during development, the phenotypes of zebrafish embryos treated with high concentrations of DAPT and cpd E were compared. The major phenotype we examined was curved tail caused by defective somitogenesis.
Figure 4 Treatment of zebrafish embryos with DAPT causes curved tails. A. A stock of DAPT or cpd E in DMSO was diluted in embryo medium, and increasing concentrations of DAPT or cpd E were applied to de-chorionated zebrafish embryos incubated at 28°C from 24 hpf to 48 hpf. Control embryos were mock-treated with embryo medium containing the same concentration of DMSO. […] B. DAPT- or cpd E-treated embryos were kept until 4 dpf, and images were acquired at 40 × magnification.
Zebrafish embryos were raised and staged according to Kimmel, et al.. Compounds were dissolved in egg water at various final concentrations, and 0.5% DMSO was used as a negative control. Prior to the treatment at 24 hour post fertilization, embryos were de-chorionated manually. Embryos were placed in a 24-well plate (5–6 embryos/well) and treated with the compound containing egg water. Embryos were incubated at 28°C, and photographic images were taken at 2 days and 4 days post fertilization (dpf).
Compound-treated embryos were observed under an OLYMPUS SZX12 microscope. For examination, embryos were removed from the compound containing medium and placed into 0.4% tricane (3-amino benzoic acidethylester, Sigma, St. Louis, MO) solution. Upon anesthetizing, embryos were placed in 3% methylcellulose for positioning and images were recorded with OLYMPUS Q-COLOR3 camera. Images were taken at the 40× magnification for embryos at 2 and 4 dpf.

[1] = molecular target: T1, γ-secretase cleavage of Notch N100-Flag (Homo sapiens, UniProt P49768); assay: In vitro γ-secretase activity assay, NICD generated from N100-Flag, Western blot densitometry; format: biochemical; conditions: for NICD generation in vitro, dose response: N100-Flag, increasing concentrations
T1 construct: substrate made in E. coli
Procedure: (§1) To characterize the direct effect of two γ-secretase inhibitors cpd E and DAPT on APP/Notch cleavage, a conventional in vitro γ-secretase assay to quantify their inhibitory potency was used. The incubation of γ-secretase complex with purified substrates at 37°C for 4 hr was followed by Western Blot (WB) to determine the quantity of newly generated NICD. A newly generated band that corresponds to the predicted size of the NICD-Flag was detected (Fig. 1A and 1B).
(§2) Figure 1 Generation of NICD and Aβ from purified APP and Notch substrate C100 and N100 in an in vitro γ-secretase activity assay. The E. coli generated APP- and Notch-based, 100-residue γ-secretase substrates C100-Flag and N100-Flag were mixed with the membrane vesicles solubilized in CHAPSO after DMSO or compounds were added. The mixture was incubated at 37°C for 4 hours. A. A dose-dependent inhibition of NICD generation by DAPT. Generation of NICD was detected by Western blot (WB) with antibody 1744 specifically recognizing N-terminus of NICD. B. Generation of NICD was inhibited in the presence of 100 nM of cpd E. C. Levels of NICD determined by WB were quantified by densitometry (dotted line). Levels of Aβ generated from the γ-secretase cleavage of C100 in the presence of DAPT were determined by ELISA (solid line). […] D. NICD (dotted line) and Aβ (solid line) generation in the presence of cpd E were compared.
(§3) The E. coli generated APP- and Notch-based, 100-residue γ-secretase substrates C100-Flag and N100-Flag were purified as previously described. C100-Flag substrate contains an initiating methionine, the 99 C-terminal residues of APP that start at the […], and a Flag tag. N100-Flag substrate contains a similar initiating methionine, 99 amino acids that start at the TACE cleavage site, and a Flag tag. The membrane vesicles were solubilized in 1% CHAPSO-HEPES and diluted in a final concentration of 0.2% CHAPSO-HEPES. Phosphatidylethanolamine (PE) and phosphatidylcholine (PC) were added to the final concentration of 0.02% PE and 0.08% PC. After adding DMSO or test compounds to the solubilized γ-secretase complex, substrate C100-Flag or N100-Flag was added to the mixture, then followed by incubation at 37°C for 4 hours. Two compounds have been used in this study, compound E (cpd E), {(S,S)-2-[2-(3,5-Difluorophenyl)-acetylamino]-N-(1-methyl-2-oxo-5-phenyl-2,3-dihydro-1H-benzo [e] [1,4] diazepin-3-yl)-propionamide} [57] and DAPT {N-[N-(3,5-Difluorophenacetyl-L-alanyl)]-S-phenylglycine t-Butyl Ester} [79]. Cpd E was provided by Dr. Michael Wolfe.

[2] = molecular target: T2, γ-secretase cleavage of APP C100-Flag (Homo sapiens, UniProt P49768); assay: In vitro γ-secretase activity assay, Aβ generated from C100-Flag, ELISA; format: biochemical; conditions: for γ-secretase cleavage of APP in vitro at low concentrations: 0.1 nM to 10 nM; for IC50: C100-Flag, 37°C, 4 hr; for Aβ production in vitro, dose response: C100Flag, increasing concentrations
T2 construct: substrate made in E. coli
Procedure: as §1, §2
The same preparation of γ-secretase complex was mixed with C100Flag followed by ELISA to quantify the levels of newly generated Aβ.
as §3
Sandwich ELISAs for Aβ were performed as described. The capture antibodies, 2G3 (to Aβ residues 33–40) and 4G8 (to Aβ residues 17–24), were used for Aβ40 and Aβ total species, respectively. The detecting antibodies were biotinylated 82E1 (to Aβ residues 1–16) for Aβ1–40/total or biotinylated 266 for Aβx-40 species. The use of mid-region and C-terminal capturing antibodies and N-terminal detecting antibody for chimeric "Notch-Aβ-like" peptide (Nβ*) has been documented. The combination of several capture/detecting antibodies are use to measure Aβ and Nβ* derived from different precursors. The capture antibody 2G3 and detecting antibody 82E1 were used for measuring Nβ* from APP-α-Notch expressing cells. Since the APP-α-NOTCH is the fusion protein with its juxtamembrane portion of the APP ectodomain (the α-secretase cleavage region) replaced by the corresponding sequence in Notch, the epitopes in APP sequence could still be recognized by 2G3 (C-terminus) and 82E1 (N-terminus). The capture antibody 4G8 and detecting antibody 82E1 were used for measuring Nβ* from APP-m-Notch expressing cells. […]

## C[C@H](NC(=O)Cc1cc(F)cc(F)c1)C(=O)N[C@H](C(=O)OC(C)(C)C)c1ccccc1 [DAPT, N-[N-(3,5-Difluorophenacetyl-L-alanyl)]-S-phenylglycine t-Butyl Ester]
Zebrafish embryos
  embryo morphology, tail curvature: much shorter and curved tail; also recorded: caused curved trunk and tails; also recorded: curvature of zebrafish tail was found
  embryo morphology, tail curvature at 4 dpf: continued to show the curvature of the tails
[1]; 0.1 nM to 10 nM
  γ-secretase cleavage of Notch in vitro at low concentrations: did not inhibit
[1]; 1 μM or higher
  Notch cleavage reduced to, in vitro γ-secretase activity assay: about 50%
[1]; 10 and 100 μM
  NICD generation blocked in vitro: ~ 60%
[1]
  NICD generation in vitro, dose response: clear reduction of NICD generation
[2]
  γ-secretase cleavage of APP in vitro at low concentrations: did not inhibit
  Aβ production in vitro, dose response: dose-dependent reduction of Aβ production
[2]; 10 and 100 μM
  Aβ production in vitro: complete depletion of Aβ production
[2]; read-out: concentration inhibiting levels of Aβ to 50% in vitro
  IC50: 1000 nM

## C[C@H](NC(=O)Cc1cc(F)cc(F)c1)C(=O)N[C@H]1N=C(c2ccccc2)c2ccccc2N(C)C1=O [cpd E, (S,S)-2-[2-(3,5-Difluorophenyl)-acetylamino]-N-(1-methyl-2-oxo-5-phenyl-2,3-dihydro-1H-benzo [e] [1,4]diazepin-3-yl)-propionamide]
Zebrafish embryos
  embryo morphology, tail curvature: lack of dramatic phenotypic alteration
  embryo morphology, tail curvature at 4 dpf: minor effect on embryo morphology
Zebrafish embryos; listed as Cpd E
  embryo morphology, tail curvature: did not show any curvature
[1]; 100 nM (0.1 μM), compared to DMSO controls
  NICD generation in vitro: inhibited; also recorded: only minor reduction of NICD levels; also recorded: only had minor effect on Notch cleavage and NICD generation
[1]
  NICD generation in vitro, dose response: clear reduction of NICD generation
[2]
  γ-secretase cleavage of APP in vitro at low concentrations: selectively inhibited the γ-secretase cleavage of APP
  Aβ production in vitro, dose response: dose-dependent reduction of Aβ production
[2]; 100 nM (0.1 μM)
  Aβ generation from APP C100 in vitro: could almost deplete any Aβ generation; also recorded: completely blocked Aβ generation
[2]; read-out: IC50 for Aβ generation (levels of Aβ reduced to 50%) in vitro
  IC50: 1 nM
